Results on nine molecules are retold here after patent US20260317324A1, “BIFUNCTIONAL COMPOUNDS FOR DEGRADING BRAF VIA UBIQUITIN PROTEOSOME PATHWAY” (Nurix Therapeutics, Inc., priority 2023, published 2026).

Holding throughout (assay type): cell-based
Experiment [1] concerns the target T1, BRAF V600E (Homo sapiens, UniProt P15056, V600E).
T1 construct: endogenous C-terminal HiBiT fusion tag on BRAF V600E allele; endogenous in cells; host or cells: A375 clone 1F10 (CRISPR-Cas9 knock-in of the HiBiT tag; parental A375 from ATCC)
In words: BRAF HiBiT degradation assay, C-terminal HiBiT-tagged BRAF V600E A375 cells (clone 1F10), Nano-Glo HiBiT Lytic assay. Particulars: for Dmax: A-375. A digest of the protocol:
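Luminescence from the Nano-Glo HiBiT lytic read-out gave % BRAF V600E remaining versus DMSO-treated tagged cells, with untagged A375 as background. Clone 1F10 cells (10,000/well, 24 h pre-culture) received compound at 1 μM–0.01 nM in half-log steps, 0.2% DMSO; curve fits gave DC50 at Y=50, plus observed Dmax.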
Background: HiBiT is a short tag that completes a luciferase, so light tracks the accessible tagged protein.

The target in experiment [2] is T2, BRAF G466V (Homo sapiens, UniProt P15056, G466V).
T2 construct: Horizon Discovery (HCT-116 BRAF−/− cells); host or cells: HCT-116 BRAF−/− cells, clone 8, lentiviral transduction
T2 sequence (P15056 whole entry G466V): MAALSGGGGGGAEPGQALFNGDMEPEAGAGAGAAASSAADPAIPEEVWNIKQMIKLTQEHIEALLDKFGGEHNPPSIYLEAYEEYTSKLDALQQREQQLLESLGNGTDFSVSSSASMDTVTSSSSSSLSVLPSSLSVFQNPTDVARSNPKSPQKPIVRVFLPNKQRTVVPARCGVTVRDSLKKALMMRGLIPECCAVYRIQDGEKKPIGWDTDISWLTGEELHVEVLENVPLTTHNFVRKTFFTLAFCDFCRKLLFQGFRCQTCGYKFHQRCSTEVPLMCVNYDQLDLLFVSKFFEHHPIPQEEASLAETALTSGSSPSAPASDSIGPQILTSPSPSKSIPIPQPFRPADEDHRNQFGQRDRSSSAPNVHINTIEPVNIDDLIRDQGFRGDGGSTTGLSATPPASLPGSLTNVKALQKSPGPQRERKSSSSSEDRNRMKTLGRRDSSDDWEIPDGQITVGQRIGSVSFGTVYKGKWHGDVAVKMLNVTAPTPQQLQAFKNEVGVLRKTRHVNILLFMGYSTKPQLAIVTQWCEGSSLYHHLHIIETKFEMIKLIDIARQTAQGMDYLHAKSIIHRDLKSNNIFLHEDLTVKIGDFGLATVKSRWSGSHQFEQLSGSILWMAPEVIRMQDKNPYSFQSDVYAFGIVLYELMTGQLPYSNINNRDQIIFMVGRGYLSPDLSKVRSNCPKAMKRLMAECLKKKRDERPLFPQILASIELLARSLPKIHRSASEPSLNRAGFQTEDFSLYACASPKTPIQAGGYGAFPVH
Put plainly: BRAF HiBiT degradation assay, C-terminal HiBiT-tagged BRAF G466V overexpressed in HCT-116 BRAF−/− cells (clone 8), Nano-Glo HiBiT Lytic assay. The method, boiled down:
(§1)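 Degradation was read by Nano-Glo HiBiT lytic luminescence, normalised to DMSO-treated tagged cells with wildtype HCT-116 as background. Test cells were lentiviral clones of HCT-116 BRAF−/− carrying HiBiT-tagged mutants in RPMI/10% FBS, given compound at 0.01 nM–1 μM in duplicate. Outputs are the curve-fitted concentration giving 50% degradation and the maximal observed degradation.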

For experiment [3], the target named is T3, BRAF G469A (Homo sapiens, UniProt P15056, G469A).
T3 construct: Horizon Discovery (HCT-116 BRAF−/− cells); host or cells: HCT-116 BRAF−/− cells, clone 34, lentiviral transduction
T3 sequence (P15056 whole entry G469A): as the sequence (P15056 whole entry G466V) above, with V466G, G469A counted along it
Put plainly: BRAF HiBiT degradation assay, C-terminal HiBiT-tagged BRAF G469A overexpressed in HCT-116 BRAF−/− cells (clone 34), Nano-Glo HiBiT Lytic assay. The method, boiled down:
as §1

Experiment [4] deals with T4, BRAF D594G (Homo sapiens, UniProt P15056, D594G).
T4 construct: Horizon Discovery (HCT-116 BRAF−/− cells); host or cells: HCT-116 BRAF−/− cells, clone 63, lentiviral transduction
T4 sequence (P15056 whole entry D594G): as the sequence (P15056 whole entry G466V) above, with V466G, D594G counted along it
Put plainly: BRAF HiBiT degradation assay, C-terminal HiBiT-tagged BRAF D594G overexpressed in HCT-116 BRAF−/− cells (clone 63), Nano-Glo HiBiT Lytic assay. The method, boiled down:
as §1

Where [5] appears, read: A375 (BRAF V600E, Class 1), DC50 at 50% degradation.
[6] abbreviates: A375 (BRAF V600E, Class 1), observed Dmax, % protein degraded relative to DMSO control.
[7] abbreviates: BRAF G466V (Class 3), HCT-116 BRAF−/− cells, DC50 at 50% degradation.
Setting [8] is: BRAF G466V (Class 3), HCT-116 BRAF−/− cells, observed Dmax relative to DMSO control.
The mark [9] stands for this setting: BRAF G469A (Class 2), HCT-116 BRAF−/− cells, DC50 at 50% degradation.
Setting [10] is: BRAF G469A (Class 2), HCT-116 BRAF−/− cells, observed Dmax relative to DMSO control.
The mark [11] stands for this setting: BRAF D594G (Class 3), HCT-116 BRAF−/− cells, DC50 at 50% degradation.
Where [12] appears, read: BRAF D594G (Class 3), HCT-116 BRAF−/− cells, observed Dmax relative to DMSO control.
Setting [13] is: A375 (BRAF V600E), DC50 at 50%: fitted conc. at Y=50.
Setting [14] is: A375 (BRAF V600E), percentage protein degraded at maximal compound effect relative to DMSO.
Setting [15] is: BRAF G466V, DC50 at 50%: fitted conc. at Y=50.
The mark [16] stands for this setting: HCT-116, BRAF G466V, percentage protein degraded at maximal compound effect relative to DMSO.
[17] abbreviates: Class 2, BRAF G469A, DC50 at 50%: fitted conc. at Y=50.
Setting [18] is: HCT-116, Class 2, BRAF G469A, percentage protein degraded at maximal compound effect relative to DMSO.
Setting [19] is: BRAF D594G, DC50 at 50%: fitted conc. at Y=50.
Setting [20] is: HCT-116, BRAF D594G, percentage protein degraded at maximal compound effect relative to DMSO.

As a reminder, the DC50 is the concentration at which degradation of the target reaches its halfway point. A low value points to a more potent degrader. Broadly, the Dmax is the greatest extent of degradation seen. Read a high Dmax as deep degradation.

Some results are limits rather than exact numbers.

T1 sequence (P15056 whole entry V600E, the tested form may be a part): as the sequence (P15056 whole entry G466V) above, with V466G, V600E counted along it

With `CCN(C)S(=O)(=O)Nc1cc(F)cc(-c2cn(-c3ccc(N4CCN(CC5CCN(c6ccc([C@H]7CCC(=O)NC7=O)cn6)CC5)CC4)cc3)nc2-c2ccncc2)c1F` [Compound 375, (3R)-3-(6-{4-[(4-{4-[4-(3-{[ethyl(methyl)sulfamoyl]amino}-2,5-difluorophenyl)-3-(pyridin-4-yl)-1H-pyrazol-1-yl]phenyl}piperazin-1-yl)methyl]piperidin-1-yl}pyridin-3-yl)piperidine-2,6-dione], the DC50 in experiment [1] (setting [5]) was under 10 nM; in experiment [2] (setting [7]), under 10 nM; in experiment [3] (setting [9]) it was 10 to 50 nM; in experiment [4] (setting [11]), under 10 nM. Also, the greatest degradation seen (Dmax) in experiment [1] (setting [6]), in experiment [2] (setting [8]), in experiment [3] (setting [10]) and in experiment [4] (setting [12]) was over 70% throughout.
Turning to `CCC(C)S(=O)(=O)Nc1cc(Cl)cc(-c2cn(-c3ccc(N4CCN(CC5CCN(c6ccc(N7CCC(=O)NC7=O)cc6)CC5)CC4)cc3)nc2-c2ccncc2)c1F` (racemic) [Compound 328, Rac-(2R)—N-[5-chloro-3-(1-{4-[4-({1-[4-(2,4-dioxo-1,3-diazinan-1-yl)phenyl]piperidin-4-yl}methyl)piperazin-1-yl]phenyl}-3-(pyridin-4-yl)-1H-pyrazol-4-yl)-2-fluorophenyl]butane-2-sulfonamide], the DC50 in experiment [1] (setting [5]) is under 10 nM; in experiment [2] (setting [7]) it was 10 to 50 nM; in experiment [3] (setting [9]), 50 to 500 nM; in experiment [4] (setting [11]), under 10 nM. The Dmax in experiment [1] (setting [6]) is over 70%; in experiment [2] (setting [8]), over 70%; in experiment [3] (setting [10]), 30 to 70%; in experiment [4] (setting [12]) it was 30 to 70%.
Consider `CCCS(=O)(=O)Nc1cccc(-c2nc(C(C)(C)C)sc2-c2ccnc(Nc3ccc(N4CCN(C(=O)CN5CCc6cc(C7CCC(=O)NC7=O)ccc6C5)CC4)c(F)c3)n2)c1F` (racemic) [Compound 51, Rac-N-(3-{2-tert-butyl-5-[2-({4-[4-(2-{6-[(3R)-2,6-dioxopiperidin-3-yl]-1,2,3,4-tetrahydroisoquinolin-2-yl}acetyl)piperazin-1-yl]-3-fluorophenyl}amino)pyrimidin-4-yl]-1,3-thiazol-4-yl}-2-fluorophenyl)propane-1-sulfonamide], for which the DC50 in experiment [1] (setting [13]) is under 10 nM; in experiment [2] (setting [15]), 50 to 500 nM; in experiment [3] (setting [17]) it was over 500 nM; in experiment [4] (setting [19]), 50 to 500 nM. In addition, the Dmax is over 70% in experiment [1] (setting [14]), 30 to 70% in experiment [2] (setting [16]), 30 to 70% in experiment [3] (setting [18]) and 30 to 70% in experiment [4] (setting [20]).
Turning to `O=C1CC[C@H](c2ccc(N3CCC(CN4CCN(c5ccc(-n6cc(-c7cc(Cl)cc(NS(=O)(=O)N8CC[C@@H](F)C8)c7F)c(-c7ccncc7)n6)cc5F)CC4)CC3)cc2)C(=O)N1` [Compound 367, (3R)—N-{5-chloro-3-[1-(4-{4-[(1-{4-[(3R)-2,6-dioxopiperidin-3-yl]phenyl}piperidin-4-yl)methyl]piperazin-1-yl}-3-fluorophenyl)-3-(pyridin-4-yl)-1H-pyrazol-4-yl]-2-fluorophenyl}-3-fluoropyrrolidine-1-sulfonamide], the DC50 in experiment [1] (setting [5]), in experiment [2] (setting [7]), in experiment [3] (setting [9]) and in experiment [4] (setting [11]) was under 10 nM throughout. Moreover, the Dmax in experiment [1] (setting [6]), in experiment [2] (setting [8]), in experiment [3] (setting [10]) and in experiment [4] (setting [12]) was over 70% each time.
On to `O=C1CCC(c2ccc(N3CCC(CN4CCN(c5ccc(-n6cc(-c7cc(C(F)F)cc(NS(=O)(=O)N8CCCC8)c7F)c(-c7ccncc7)n6)cc5)CC4)CC3)nc2)C(=O)N1` (racemic) [Compound 350, Rac-N-[5-(difluoromethyl)-3-[1-(4-{4-[(1-{5-[(3R)-2,6-dioxopiperidin-3-yl]pyridin-2-yl}piperidin-4-yl)methyl]piperazin-1-yl}phenyl)-3-(pyridin-4-yl)-1H-pyrazol-4-yl]-2-fluorophenyl]pyrrolidine-1-sulfonamide], for which the DC50 in experiment [1] (setting [5]), in experiment [2] (setting [7]), in experiment [3] (setting [9]) and in experiment [4] (setting [11]) was under 10 nM in each case. Besides, the Dmax in experiment [1] (setting [6]), in experiment [2] (setting [8]), in experiment [3] (setting [10]) and in experiment [4] (setting [12]) was over 70% each time.
`CCCS(=O)(=O)Nc1cccc(-c2nc(C3CCC4(CC3)CCN(C(=O)C3CCN(c5ccc6c(c5)C(=O)N(C5CCC(=O)NC5=O)C6=O)CC3)CC4)sc2-c2ccnc(N)n2)c1F` (racemic) [Compound 245, Rac-N-{3-[5-(2-aminopyrimidin-4-yl)-2-[3-(1-{2-[(3R)-2,6-dioxopiperidin-3-yl]-1,3-dioxo-2,3-dihydro-1H-isoindol-5-yl}piperidine-4-carbonyl)-3-azaspiro[5.5]undecan-9-yl]-1,3-thiazol-4-yl]-2-fluorophenyl}propane-1-sulfonamide]: the DC50 in experiment [1] (setting [13]) is under 10 nM; in experiment [2] (setting [15]) it was over 500 nM; in experiment [3] (setting [17]) it was over 500 nM; in experiment [4] (setting [19]), under 10 nM. Also, the Dmax in experiment [1] (setting [14]) was over 70%; in experiment [2] (setting [16]) it was 30 to 70%; in experiment [3] (setting [18]) it was 30 to 70%; in experiment [4] (setting [20]), 30 to 70%.
For the molecule `O=C1CC[C@@H](c2ccc(N3CCC(CN4CCN(c5ccc(-n6cc(-c7cc(Cl)cc(NS(=O)(=O)N8CCCC8)c7F)c(-c7ccncc7)n6)cc5)CC4)CC3)cc2F)C(=O)N1` [Compound 384, N-{5-chloro-3-[1-(4-{4-[(1-{4-[(3S)-2,6-dioxopiperidin-3-yl]-3-fluorophenyl}piperidin-4-yl)methyl]piperazin-1-yl}phenyl)-3-(pyridin-4-yl)-1H-pyrazol-4-yl]-2-fluorophenyl}pyrrolidine-1-sulfonamide], the DC50 in experiment [1] (setting [5]) is 10 to 50 nM; in experiment [2] (setting [7]) it was 10 to 50 nM; in experiment [3] (setting [9]), over 500 nM; in experiment [4] (setting [11]), over 500 nM. The Dmax is over 70% in experiment [1] (setting [6]), 30 to 70% in experiment [2] (setting [8]), 30 to 70% in experiment [3] (setting [10]) and 30 to 70% in experiment [4] (setting [12]).
Take `CCCS(=O)(=O)Nc1cccc(-c2nc(C(C)(C)C)sc2-c2ccnc(Nc3cnn(C4CCN(CC5CCN(c6ccc7c(=O)n(C8CCC(=O)NC8=O)ccc7c6)CC5)CC4)c3)n2)c1F` (racemic) [Compound 80, Rac-N-[3-(2-tert-butyl-5-{2-[(1-f{1-[(1-{2-[(3R)-2,6-dioxopiperidin-3-yl]-1-oxo-1,2-dihydroisoquinolin-6-yl}piperidin-4-yl)methyl]piperidin-4-yl}-1H-pyrazol-4-yl)amino]pyrimidin-4-yl}-1,3-thiazol-4-yl)-2-fluorophenyl]propane-1-sulfonamide]: the DC50 in experiment [1] (setting [13]) is under 10 nM; in experiment [2] (setting [15]), over 500 nM; in experiment [3] (setting [17]), over 500 nM; in experiment [4] (setting [19]), over 500 nM. Further, the Dmax in experiment [1] (setting [14]) is over 70%; in experiment [2] (setting [16]), 30 to 70%; in experiment [3] (setting [18]), under 30%; in experiment [4] (setting [20]) it was 30 to 70%.
For `CCN(C)S(=O)(=O)Nc1cccc(-c2nc(C(C)(C)C)sc2-c2ccnc(Nc3ccc(N4CCN(C(=O)C5CCN(c6ccc(C7CCC(=O)NC7=O)cc6)CC5)CC4)cn3)n2)c1F` (racemic) [Compound 36, Rac-(3S)-3-[4-(4-{4-[6-({4-[2-tert-butyl-4-(3-{[ethyl(methyl)sulfamoyl]amino}-2-fluorophenyl)-1,3-thiazol-5-yl]pyrimidin-2-yl}amino)pyridin-3-yl]piperazine-1-carbonyl}piperidin-1-yl)phenyl]piperidine-2,6-dione], the DC50 in experiment [1] (setting [13]) was under 10 nM; in experiment [2] (setting [15]) it was over 500 nM; in experiment [3] (setting [17]), 10 to 50 nM; in experiment [4] (setting [19]) it was over 500 nM. The maximal degradation (Dmax) was over 70% in experiment [1] (setting [14]), under 30% in experiment [2] (setting [16]), 30 to 70% in experiment [3] (setting [18]) and 30 to 70% in experiment [4] (setting [20]).
